Laboratory results: the supplement of paper PMC10307832

Assays:
Test in all cases: relative viability (nuclei count vs DMSO), 5 days (fraction); higher = more cells survive
[1] = compound: O=C(Nc1c[nH]nc1-c1nc2ccc(CN3CCOCC3)cc2[nH]1)NC1CC1 [AT9283] + O=C(c1cc(Cc2n[nH]c(=O)c3ccccc23)ccc1F)N1CCN(C(=O)C2CC2)CC1 [Olaparib] (partner 8 µM)
How it was run: (§1)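 Lung cancer cell lines, seeded in 1536-well plates, were treated the following day by pin tool with a single drug or with five library-drug doses (not always all listed) in √10 steps on top of a fixed anchor-drug dose. Cells were fixed and nuclei stained in one step after 5 days, and nuclei were counted. Relative viability is the nuclei count for treated wells divided by that for vehicle wells, reported as medians of duplicate plates.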

[2] = compound: O=C(Nc1c[nH]nc1-c1nc2ccc(CN3CCOCC3)cc2[nH]1)NC1CC1 [AT9283] + Nc1ncn([C@H]2C[C@H](O)[C@@H](CO)O2)c(=O)n1 [Decitabine] (partner 2 µM)
How it was run: as §1

[3] = compound: C#Cc1cccc(Nc2ncnc3cc(OCCOC)c(OCCOC)cc23)c1 [Erlotinib] + Cc1cc(Nc2cc(N3CCN(C)CC3)nc(Sc3ccc(NC(=O)C4CC4)cc3)n2)n[nH]1 [Tozasertib] (partner 0.1 µM)
How it was run: as §1

[4] = compound: C#Cc1cccc(Nc2ncnc3cc(OCCOC)c(OCCOC)cc23)c1 [Erlotinib] + CS(=O)(=O)N1CCN(Cc2cc3nc(-c4cccc5[nH]ncc45)nc(N4CCOCC4)c3s2)CC1 [Pictilisib] (partner 1 µM)
How it was run: as §1

[5] = compound: C#Cc1cccc(Nc2ncnc3cc(OCCOC)c(OCCOC)cc23)c1 [Erlotinib] + CC(=O)c1c(C)c2cnc(Nc3ccc(N4CCNCC4)cn3)nc2n(C2CCCC2)c1=O [Palbociclib] (partner 0.5 µM)
How it was run: as §1

| Cell Line | relative viability ([1]; first compound 0.003 µM) | relative viability ([1]; first compound 0.03 µM) | relative viability ([1]; first compound 0.09487 µM) | relative viability ([1]; first compound 0.3 µM) | relative viability ([2]; first compound 0.003 µM) | relative viability ([2]; first compound 0.03 µM) | relative viability ([2]; first compound 0.09487 µM) | relative viability ([2]; first compound 0.3 µM) | relative viability ([3]; first compound 0.02 µM) | relative viability ([3]; first compound 0.2 µM) | relative viability ([3]; first compound 0.6325 µM) | relative viability ([3]; first compound 2 µM) | relative viability ([4]; first compound 0.02 µM) | relative viability ([4]; first compound 0.2 µM) | relative viability ([4]; first compound 0.6325 µM) | relative viability ([4]; first compound 2 µM) | relative viability ([5]; first compound 0.02 µM) | relative viability ([5]; first compound 0.2 µM) | relative viability ([5]; first compound 0.6325 µM) | relative viability ([5]; first compound 2 µM) |
| --- | --- | --- | --- | --- | --- | --- | --- | --- | --- | --- | --- | --- | --- | --- | --- | --- | --- | --- | --- | --- |
| NCI-H2347 | 0.595 | 0.615 | 0.477 | 0.413 | 0.624 | 0.61 | 0.471 | 0.372 | 0.58 | 0.49 | 0.52 | 0.535 | 0.699 | 0.545 | 0.827 | 0.655 | 0.432 | 0.415 | 0.429 | 0.468 |
| NCI-H2405 | 0.941 | 0.615 | 0.333 | 0.217 | 0.732 | 0.725 | 0.381 | 0.24 | 0.765 | 0.722 | 0.686 | 0.565 | 0.36 | 0.452 | 0.589 | 0.469 | 0.534 | 0.521 | 0.535 | 0.54 |
| NCI-H3122 | 0.561 | 0.571 | 0.351 | 0.241 | 0.472 | 0.397 | 0.296 | 0.136 | 0.489 | 0.444 | 0.44 | 0.297 | 0.576 | 0.614 | – | 0.598 | 0.195 | 0.215 | 0.159 | 0.195 |
| PC-3 [JPC-3] | 1.31 | 1.03 | 0.844 | 0.607 | 0.837 | 0.798 | 0.695 | 0.541 | 0.825 | 0.355 | 0.331 | 0.274 | 0.573 | 0.395 | 0.416 | 0.295 | 0.536 | 0.473 | 0.339 | 0.376 |
| PC-14 | 0.264 | 0.151 | 0.074 | 0.0669 | 0.199 | 0.157 | 0.0721 | 0.0727 | 0.435 | 0.148 | 0.159 | 0.103 | 0.221 | 0.0861 | 0.0876 | 0.0584 | 0.173 | 0.0873 | 0.0953 | 0.0635 |
| RERF-LC-KJ | 0.962 | 0.485 | 0.267 | 0.237 | 0.746 | 0.477 | 0.282 | 0.224 | 0.55 | 0.53 | 0.44 | 0.381 | 0.579 | 0.412 | 0.376 | 0.307 | 1.02 | 1.01 | 0.93 | 0.759 |
| SK-LU-1 | 0.495 | 0.479 | 0.259 | 0.258 | 0.62 | 0.423 | 0.415 | 0.407 | 0.336 | 0.352 | 0.332 | 0.267 | 0.695 | 0.665 | 0.598 | 0.58 | 0.372 | 0.432 | 0.376 | 0.357 |
| SK-MES-1 | 0.783 | 0.677 | 0.415 | 0.144 | 0.396 | 0.334 | 0.306 | 0.138 | 0.925 | 0.929 | 0.648 | 0.536 | 0.287 | 0.245 | 0.258 | 0.22 | 0.35 | 0.257 | 0.327 | 0.293 |
| SW 1573 | 0.485 | 0.159 | 0.159 | 0.14 | 0.394 | 0.175 | 0.171 | 0.143 | 0.183 | 0.197 | 0.156 | 0.226 | 0.525 | 0.482 | 0.62 | 0.419 | 0.38 | 0.362 | 0.37 | 0.355 |
| UMC-11 | 0.712 | 0.218 | 0.213 | 0.23 | 0.57 | 0.217 | 0.261 | 0.201 | 0.208 | 0.189 | 0.204 | 0.198 | 0.795 | 0.7 | 1.04 | 0.816 | 0.364 | 0.328 | 0.345 | 0.382 |
